In US20260053935A1, “METHODS AND COMPOSITIONS FOR TREATING CANCER WITH CANCER-BINDING ADJUVANTS” (THE UNIVERSITY OF CHICAGO, priority 2022, published 2026):

Legend:
[1] = system: pro-inflammatory cytokines; assay: Serum cytokine analysis in MC38 tumor-bearing mice; assay type: in vivo; details: i.t. on a TLR7 equimolar basis; 6 hours after injection; vs PBS or vehicle control
Method: As a comparison, other mice were injected with TLR7/8 agonist telratolimod (3M-052, MedChemExpress, cat. no. HY-109104) in 10% DMSO, 40% PEG300 (Sigma Aldrich, cat. no. 8.07484), and 5% Tween-80 in PBS (Sigma Aldrich, cat. no. P8074) (with additional vehicle control mice). Six hours after injection, plasma was collected via submandibular bleed and analyzed for pro-inflammatory cytokines using LEGENDplex Mouse Inflammation Panel Assay (BioLegend, cat. no. 740446).

[2] = system: RAW 264.7 macrophages; assay: Cytotoxicity to RAW 264.7 macrophages (Zombie Aqua viability dye); assay type: cell-based; details: 24 hours after treatment; vs media alone
[3] = In vivo polymer biodistribution (tissue homogenate fluorescence); details: cytarabine one day before polymer i.v.
From the text: To achieve this, they inoculated normal B6 mice with C1498. After one day, one group of mice received a dose of cytarabine. […] Eight hours after this injection, mice were sacrificed, and tissues were harvested for homogenization and subsequent fluorescence quantification using a microplate reader. Fluorescence values were normalized per mg of tissue.

[4] = system: C1498 cells; assay: In vitro cancer cell binding of dye-labeled polymer to AML cells
From the text: Flow cytometric analysis of dye labeled PDS-containing polymers binding to C1498 cells in a (A) polymer dose-dependent manner.
They also investigated the effect of cytarabine pre-treatment on polymer binding, both in a dose and time dependent manner.

## CCCCCCCCCCCCCCCCCC(=O)NCCCCOn1c(CCCC)nc2c(N)nc3ccccc3c21 [3M-052]
[1]
  systemic inflammatory cytokines (IFN-γ, IL-6, MCP-1, IFN-β, IL-27): produced significant upregulation

## CCOCc1nc2c(N)nc3ccccc3c2n1CC(C)(C)O [R848]
[2]
  live cells as a percent of total cells: no significant change from the media alone control wells

## Nc1ccn([C@@H]2O[C@H](CO)[C@@H](O)[C@@H]2O)c(=O)n1 [cytarabine]
[3]
  effect of cytarabine pre-treatment on tissue biodistribution of polymer: does not significantly alter the tissue biodistribution of polymer
[4]; cytarabine given too far from polymer treatment
  efficiency of polymer binding to C1498 cells after cytarabine pre-treatment (duration): decreases binding efficiency of PDS-containing polymers
[4]; cytarabine pre-treatment for 4 hours
  efficiency of polymer binding to C1498 cells after cytarabine pre-treatment (dose): increased the efficiency of polymer binding in a dose-dependent manner
